Measured values as given in patent publication US4656249A, “Peptides with relaxin activity” (Howard Florey Institute of Experimental Physiology and …, priority 1982, dated 1987).
Positions of bridges follow the written chain, without caps; N, C: chain ends. Residues, ends and D or L forms follow the SMILES beside them. Chains are numbered I, II in the order given. No end group written: not given here.

Legend:
[1] = solubility behaviour of relaxin B chain peptides in aqueous solution; format: physicochemical; settings: crude synthetic B chain
Source text: We have carried out research into the chemical synthesis of relaxin and its structural analogues as part of a systematic study of the structure-function relationships in the hormone molecule. The purified separate chains of pig relaxin have been obtained in approximately 10% yield (based on crude). The major impurities in the synthetic peptides appear to have arisen through side-reactions of the cysteine residues occurring during the HF cleavage step. In more recent syntheses improved yields have been obtained using the HF stable S-ethyl mercapto protecting group for cysteine. […] Column chromatography on Sephadex, cellulose, polyamide or polystyrene resins results in virtually a complete loss of peptide by irreversible absorption (16). These properties have made purification of synthetic relaxin B chain peptides and their coupling to A chain particularly difficult.
As shown by FIG. 3(c), the CD spectra indicate that shortening to 25 residues results in a change of from the beta-configuration to an unordered conformation. This conformational change is reflected in an enhanced solubility of the peptide in aqueous solution, a loss of the adsorptive behaviour and an improvement in the combination yield with the A chain. Using the above-described method the combination yield rises to 10%. […]

[2] = test system: rat uterine contractility; test: rat uterine contractility assay (bioassay of recombined relaxin peptides); format: cell-based; settings: for Recombination Yield (by BIOASSAY), actual combination yield based on the B chain: combination of A and B chains, yield measured by bioassay; for Recombination Yield (by BIOASSAY), recalculated on the basis of 100% yield for the recombined natural A22 and B28 chains: relative to recombined natural A22 + B28 = 100%
Description: The recombination of the relaxin peptide chains was monitored by HPLC and radioimmunoassay using an antibody raised to native porcine relaxin A22B29 and I125 Bolton-Hunter labelled A22B29 tracer (16). The biological activity of the recombined products was assessed using the rat uterine contractility assay (18).
The biological activity of the synthetic relaxin peptides was tested in the rat uterine contractility assay (18).

Compound	pH at which the peptide is soluble [1]	Recombination Yield (by BIOASSAY), actual combination yield based on the B chain [2] [%]	Recombination Yield (by BIOASSAY), recalculated on the basis of 100% yield for the recombined natural A22 and B28 chains [2] [%]
B(1-29): synthetic porcine relaxin B chain of 29 residues (B chain of CMa')	> 5.5	–	–
I: RMTLSEKCCQVGCIRKDIARLC / II: Ac-NDFIKACGRELVRLWVEICG-NH2 (disulfide I:8-I:13, I:9-II:7, I:22-II:19) [SA (1-22) SB[N--acetyl](4-23)NH2]	–	2.4	10
CC[C@H](C)[C@@H]1NC(=O)[C@H](CC(=O)O)NC(=O)[C@H](CCCCN)NC(=O)[C@H](CCCNC(=N)N)NC(=O)[C@H]([C@@H](C)CC)NC(=O)[C@@H]2CSSC[C@H](NC(=O)[C@H](CCCCN)NC(=O)[C@H](CCC(=O)O)NC(=O)[C@H](CO)NC(=O)[C@@H](N)CC(C)C)C(=O)N[C@@H](CSSC[C@H](NC(=O)[C@H](C)NC(=O)[C@H](CCCCN)NC(=O)[C@@H](NC(=O)[C@H](Cc3ccccc3)NC(=O)[C@H](CC(=O)O)NC(=O)[C@H](CC(N)=O)NC(C)=O)[C@@H](C)CC)C(=O)NCC(=O)N[C@@H](CCCNC(=N)N)C(=O)N[C@@H](CCC(=O)O)C(=O)N[C@@H](CC(C)C)C(=O)N[C@@H](C(C)C)C(=O)N[C@@H](CCCNC(=N)N)C(=O)N[C@@H](CC(C)C)C(=O)N[C@@H](Cc3c[nH]c4ccccc34)C(=O)N[C@@H](C(C)C)C(=O)N[C@@H](CCC(=O)O)C(=O)N[C@@H]([C@@H](C)CC)C(=O)N[C@H](C(=O)NCC(N)=O)CSSC[C@@H](C(=O)O)NC(=O)[C@H](CC(C)C)NC(=O)[C@H](CCCNC(=N)N)NC(=O)[C@H](C)NC1=O)C(=O)N[C@@H](CCC(N)=O)C(=O)N[C@@H](C(C)C)C(=O)NCC(=O)N2 [SA (4-22) SB[N--acetyl](4-23)NH2] (I: Ac-NDFIKACGRELVRLWVEICG-NH2 / II: H-LSEKCCQVGCIRKDIARLC-OH; disulfide I:7-II:6, I:19-II:19, II:5-II:10)	–	1.3	5
